In patent US20220242846A1, “ISOINDOLINONE COMPOUNDS” (Monte Rosa Therapeutics AG, priority 2019, published 2022):
Where two headings read alike, the source gives them in different places.

What was measured:
[1] = test system: Human mammary epithelial cells (HMEC) engineered to express c-myc tagged with EGFP; assay: 3D spheroid assay, myc-HMEC (CellTiterGlo3D viability); type: cell-based
Method: (§1) 3D Spheroid Experiments—HMEC
(§2) Human mammary epithelial cells (HMEC) were engineered to express either c-myc tagged with EGFP or EGFP alone (non myc) (analogous but distinct from Kessler J D et al, Science. 2012 Jan. 20; 335(6066):348-53. doi: 10.1126/science.1212728; Hsu T Y et al, Nature. 2015 Sep. 17; 525(7569):384-8. doi: 10.1038/nature14985). The engineered cells were seeded at 1000 (myc) or 4000 (non myc) cells/well in a 384 ultra-low attachment plate in a total volume of 40 µL, HMEC cell culture media (DMEM/F12+10% HI-FBS+15 mM HEPES+0.5 ug/ml Hydrocortisone+10 ug/ml Insulin+20 ng/ml EGF). Plates were spun at 1200 rpm for 5 minutes at room temperature to ensure that cells have gathered in the middle of the well and incubated at 37° C. for 48 hrs before firing with compounds. On Day 2 (48 h post seeding) cells were imaged (brightfield and EGFP fluorescence) using the Celigo imaging cytometer prior to firing compounds. For primary screens, compounds were added at three concentrations (1.25, 10 and 30 uM) in a volume of 120 nL using the ECHO acoustic dispenser and spun at 2000 rpm for 2 minutes at room temperature before incubating at 37° C. for 5 days. […] On Day 7, prior to measuring cell viability using CellTiterGlo3D, cells were imaged (brightfield and EGFP fluorescence) on the Celigo imaging cytometer. The CellTiterGlo3D reagent is added at 30uL/well and incubated at room temperature for 30mins After 30mins of incubation, luminescence readings were recorded using the Perkin Elmer EnVision reader.

[2] = test system: Human mammary epithelial cells (HMEC) engineered to express EGFP alone (non myc); assay: 3D spheroid assay, non myc-HMEC (CellTiterGlo3D viability); type: cell-based; conditions: 120 h, 3D spheroids, 5 days with compound, read-out: Code: EC50 value in the non myc-HMEC assay
Method: as §1, §2

[3] = biological target: GSPT1 (Homo sapiens, UniProt P15170+Q96SW2); assay: Immunofluorescence assay for GSPT1 degradation in CAL-51 cells; type: cell-based; design: CAL-51 cells were purchased from DSMZ (cat. Number ACC302); endogenous in cells; host or cells: CAL-51 (DSMZ ACC302); conditions: compound treatment 6 hours
Sequence of GSPT1 (P15170 whole entry): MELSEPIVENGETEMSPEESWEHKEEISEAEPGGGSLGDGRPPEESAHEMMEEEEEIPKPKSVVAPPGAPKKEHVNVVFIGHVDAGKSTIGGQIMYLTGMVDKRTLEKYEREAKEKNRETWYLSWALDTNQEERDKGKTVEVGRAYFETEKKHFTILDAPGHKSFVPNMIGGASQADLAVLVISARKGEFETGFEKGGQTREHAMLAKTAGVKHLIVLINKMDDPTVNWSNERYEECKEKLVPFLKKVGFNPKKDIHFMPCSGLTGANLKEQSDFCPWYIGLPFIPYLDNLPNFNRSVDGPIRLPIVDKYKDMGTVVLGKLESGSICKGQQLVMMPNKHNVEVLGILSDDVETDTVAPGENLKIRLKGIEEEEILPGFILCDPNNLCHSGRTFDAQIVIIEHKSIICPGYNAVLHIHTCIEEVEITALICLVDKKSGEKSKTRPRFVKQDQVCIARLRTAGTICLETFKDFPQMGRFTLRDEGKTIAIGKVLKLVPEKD
Sequence of GSPT1 (Q96SW2 whole entry): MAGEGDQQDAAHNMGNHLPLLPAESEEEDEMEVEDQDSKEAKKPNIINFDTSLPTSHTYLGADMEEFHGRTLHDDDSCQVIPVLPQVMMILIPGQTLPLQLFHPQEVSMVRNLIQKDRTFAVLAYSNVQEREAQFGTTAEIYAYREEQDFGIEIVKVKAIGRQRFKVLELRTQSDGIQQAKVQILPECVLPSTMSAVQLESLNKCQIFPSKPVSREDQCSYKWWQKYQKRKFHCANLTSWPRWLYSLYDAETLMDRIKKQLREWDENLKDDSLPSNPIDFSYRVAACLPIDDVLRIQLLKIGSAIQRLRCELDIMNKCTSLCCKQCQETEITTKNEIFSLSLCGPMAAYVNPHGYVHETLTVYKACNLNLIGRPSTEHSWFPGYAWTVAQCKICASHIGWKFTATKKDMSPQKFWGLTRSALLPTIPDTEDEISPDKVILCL
Sequence of GSPT1 (Q16531 2-1140 partner limits assumed): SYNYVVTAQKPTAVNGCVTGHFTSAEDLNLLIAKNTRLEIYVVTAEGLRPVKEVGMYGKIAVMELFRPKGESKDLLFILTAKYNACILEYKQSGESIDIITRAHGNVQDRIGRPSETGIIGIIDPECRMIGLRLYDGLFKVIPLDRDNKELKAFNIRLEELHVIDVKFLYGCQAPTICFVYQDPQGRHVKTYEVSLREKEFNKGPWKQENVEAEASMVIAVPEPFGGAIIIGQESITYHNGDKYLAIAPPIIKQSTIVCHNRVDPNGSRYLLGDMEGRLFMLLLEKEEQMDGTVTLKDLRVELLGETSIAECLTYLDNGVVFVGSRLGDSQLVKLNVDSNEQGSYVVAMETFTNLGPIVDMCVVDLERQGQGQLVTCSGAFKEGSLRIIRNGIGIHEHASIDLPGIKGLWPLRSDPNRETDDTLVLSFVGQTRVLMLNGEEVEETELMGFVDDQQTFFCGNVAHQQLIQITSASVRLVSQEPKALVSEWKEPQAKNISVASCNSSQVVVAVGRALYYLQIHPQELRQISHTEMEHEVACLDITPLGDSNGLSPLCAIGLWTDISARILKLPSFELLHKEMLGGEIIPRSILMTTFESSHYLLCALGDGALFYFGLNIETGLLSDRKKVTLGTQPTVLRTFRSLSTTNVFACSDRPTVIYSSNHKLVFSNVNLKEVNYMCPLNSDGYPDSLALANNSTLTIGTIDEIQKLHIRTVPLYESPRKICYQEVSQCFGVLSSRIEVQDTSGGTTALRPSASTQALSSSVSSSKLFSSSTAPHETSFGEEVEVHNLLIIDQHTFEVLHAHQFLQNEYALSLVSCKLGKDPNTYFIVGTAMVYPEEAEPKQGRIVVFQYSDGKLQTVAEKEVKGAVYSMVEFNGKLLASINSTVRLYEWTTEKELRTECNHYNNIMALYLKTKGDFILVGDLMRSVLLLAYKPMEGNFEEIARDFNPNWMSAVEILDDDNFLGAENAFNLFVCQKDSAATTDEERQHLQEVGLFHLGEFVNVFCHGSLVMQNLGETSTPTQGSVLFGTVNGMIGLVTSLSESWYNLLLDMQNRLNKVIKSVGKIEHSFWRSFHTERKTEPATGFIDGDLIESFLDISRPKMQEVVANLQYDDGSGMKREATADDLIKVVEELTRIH
Method in brief: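 CAL-51 cells on fibronectin-coated plates treated 6 h with compound (30 μM to 0.1 nM); fixed, stained with anti-GSPT1/Alexa-488, phalloidin and DAPI, imaged by high-content microscopy. Mean GSPT1 intensity per cell normalized to controls; DC50 by non-linear regression.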

[4] = biological target: T1, Full length wild-type cereblon CRBN (Homo sapiens, UniProt Q96SW2); assay: Fluorescence polarization (FP) assay indicating cereblon binding; conditions: CRBN 80.0 nM, fluorescent probe 5 nM, FP measured after 12 hours; read-out: rFP IC50
T1 construct: Full length wild-type cereblon CRBN (80.0 nM, 10 μL) was incubated in assay buffer
T1 sequence (Q96SW2 whole entry): as the sequence (Q96SW2 whole entry) above
Method in brief: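 Full-length wild-type human CRBN (80.0 nM) preincubated 30 min at room temperature with compound (12-point curve, 300-0.937 or 3000-9.3 nM) in HEPES pH 8.0, NaCl, TCEP, Tween 20. Thalidomide-based Cy5-type probe then added at 5 nM final; FP read after 12 h (ex 590, em 675 nm), normalized to DMSO, IC50 derived.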

[5] = Homo sapiens, HMEC, 120 h, 3D spheroids, 5 days with compound, read-out: Code: EC50 value in the myc-HMEC assay
[6] = read-out: Code: activity for GSPT1 degradation (DC50)
[7] = myc-HMEC 3D spheroids (compounds with code D and E), 5 days, read-out: EC50
[8] = Homo sapiens, HMEC, 120 h, myc-HMEC 3D spheroids (compounds with code D and E), 5 days, read-out: EC50
[9] = GSPT1 degradation, read-out: DC50

SMILES	DC50 [3, 6] [nM]	IC50 [4] [nM]	DC50 [3, 9] [nM]	EC50 [1, 5] [nM]	EC50 [2] [nM]	EC50 [1, 7] [nM]	EC50 [1, 8] [nM]
Cc1cccc(C)c1NC(=O)NCc1ccc2c(c1)C(=O)N(C1CCC(=O)NC1=O)C2 (centres unmarked) [Compound 25]	> 300	612		> 2000	> 10000		
COc1ccc(C)cc1NC(=O)NCc1ccc2c(c1)C(=O)N(C1CCC(=O)NC1=O)C2 (centres unmarked) [Compound 17]	> 300	514		> 2000	> 10000		
CC(C)(C)c1ccccc1NC(=O)NCc1ccc2c(c1)C(=O)N(C1CCC(=O)NC1=O)C2 (centres unmarked) [Compound 11]	> 300	1230		> 2000	> 10000		
O=C1CCC(N2Cc3ccc(CNC(=O)Nc4ccc(C(F)(F)F)cc4)cc3C2=O)C(=O)N1 (centres unmarked) [Compound 41]	100 to 300	590	172	400 to 2000	> 10000	1100	≤ 2000
COc1ccc(NC(=O)NCc2ccc3c(c2)C(=O)N(C2CCC(=O)NC2=O)C3)c(C)c1 (centres unmarked) [Compound 23]	> 300	464		> 2000	> 10000		
COc1cccc(NC(=O)NCc2ccc3c(c2)C(=O)N(C2CCC(=O)NC2=O)C3)c1 (centres unmarked) [Compound 6]	> 300	467		> 2000	> 10000		
O=C1CCC(N2Cc3ccc(CNC(=O)Nc4ccc(F)c(Cl)c4)cc3C2=O)C(=O)N1 (centres unmarked) [Compound 42]	100 to 300	589	253	400 to 2000	> 10000	1720	≤ 2000
O=C1CCC(N2Cc3ccc(CNC(=O)Nc4cc(Cl)ccc4Cl)cc3C2=O)C(=O)N1 (centres unmarked) [Compound 35]	> 300	602		> 2000	> 10000		
O=C1CCC(N2Cc3ccc(CNC(=O)NCC4CC4)cc3C2=O)C(=O)N1 (centres unmarked) [Compound 26]	> 300	907		> 2000	> 10000		
Cc1ccccc1NC(=O)NCc1ccc2c(c1)C(=O)N(C1CCC(=O)NC1=O)C2 (centres unmarked) [Compound 37]	> 300	672		> 2000	> 10000		
CCCCCCNC(=O)NCc1ccc2c(c1)C(=O)N(C1CCC(=O)NC1=O)C2 (centres unmarked) [Compound 13]	> 300	944		> 2000	> 10000		
Cc1c(Cl)cccc1NC(=O)NCc1ccc2c(c1)C(=O)N(C1CCC(=O)NC1=O)C2 (centres unmarked) [Compound 19]	> 300	576		> 2000	> 10000		
Cc1cc(Cl)ccc1NC(=O)NCc1ccc2c(c1)C(=O)N(C1CCC(=O)NC1=O)C2 (centres unmarked) [Compound 32]	> 300	508		> 2000	> 10000		
Cc1cc(C)cc(NC(=O)NCc2ccc3c(c2)C(=O)N(C2CCC(=O)NC2=O)C3)c1 (centres unmarked) [Compound 20]	≤ 100	550		400 to 2000	> 10000	555	
CCCNC(=O)NCc1ccc2c(c1)C(=O)N(C1CCC(=O)NC1=O)C2 (centres unmarked) [Compound 14]	> 300	1420		> 2000	> 10000		
CCOc1ccccc1NC(=O)NCc1ccc2c(c1)C(=O)N(C1CCC(=O)NC1=O)C2 (centres unmarked) [Compound 22]	> 300	393		> 2000	> 10000		
O=C1CCC(N2Cc3ccc(CNC(=O)Nc4ccc(Cl)c(Cl)c4)cc3C2=O)C(=O)N1 (centres unmarked) [Compound 46]	≤ 100	1400		400 to 2000	> 10000	469	
O=C1CCC(N2Cc3ccc(CNC(=O)Nc4cccc(F)c4)cc3C2=O)C(=O)N1 (centres unmarked) [Compound 34]	> 300	481		> 2000	> 10000		
O=C1CCC(N2Cc3ccc(CNC(=O)Nc4ccc(Cl)cc4)cc3C2=O)C(=O)N1 (centres unmarked) [Compound 2]	> 300	254		> 2000	> 10000		
O=C1CCC(N2Cc3ccc(CNC(=O)NC4CCCc5ccccc54)cc3C2=O)C(=O)N1 (centres unmarked) [Compound 40]	> 300	566		> 2000	> 10000		
CCc1ccccc1NC(=O)NCc1ccc2c(c1)C(=O)N(C1CCC(=O)NC1=O)C2 (centres unmarked) [Compound 36]	> 300	546		> 2000	> 10000		
O=C1CCC(N2Cc3ccc(CNC(=O)Nc4cc(Cl)cc(Cl)c4)cc3C2=O)C(=O)N1 (centres unmarked) [Compound 38]	100 to 300	589		≤ 400	> 10000	161	
O=C1CCC(N2Cc3ccc(CNC(=O)Nc4cccc(C(F)(F)F)c4)cc3C2=O)C(=O)N1 (centres unmarked) [Compound 47]	≤ 100	1080		400 to 2000	> 10000	544	

Continued, in another order:

DC50 [3, 6] [nM]	IC50 [4] [nM]	DC50 [3, 9] [nM]	SMILES	EC50 [1, 5] [nM]	EC50 [2] [nM]	EC50 [1, 7] [nM]	EC50 [1, 8] [nM]
≤ 100	333		O=C1CCC(N2Cc3ccc(CNC(=O)Nc4ccc(-c5ccccc5)cc4)cc3C2=O)C(=O)N1 (centres unmarked) [Compound 71]	≤ 400	> 10000	39	
> 300	211		N#Cc1cccc(NC(=O)NCc2ccc3c(c2)C(=O)N(C2CCC(=O)NC2=O)C3)c1 (centres unmarked) [Compound 73]	> 2000	> 10000		
> 300	867		O=C1CCC(N2Cc3ccc(CNC(=O)Nc4ccccc4C(F)(F)F)cc3C2=O)C(=O)N1 (centres unmarked) [Compound 49]	> 2000	> 10000		
100 to 300	290	200	Cc1ccc(NC(=O)NCc2ccc3c(c2)C(=O)N(C2CCC(=O)NC2=O)C3)cc1C (centres unmarked) [Compound 68]	400 to 2000	> 10000	458	
> 300	637		O=C1CCC(N2Cc3ccc(CNC(=O)NCc4ccc(C(F)(F)F)cc4)cc3C2=O)C(=O)N1 (centres unmarked) [Compound 65]	> 2000	> 10000		
> 300	719		O=C1CCC(N2Cc3ccc(CNC(=O)Nc4ccccc4F)cc3C2=O)C(=O)N1 (centres unmarked) [Compound 48]	> 2000	> 10000		
> 300	284		Cc1ccc(F)c(NC(=O)NCc2ccc3c(c2)C(=O)N(C2CCC(=O)NC2=O)C3)c1 (centres unmarked) [Compound 67]	> 2000	> 10000		
> 300	400		O=C1CCC(N2Cc3ccc(CNC(=O)NCCc4ccc(Cl)cc4)cc3C2=O)C(=O)N1 (centres unmarked) [Compound 64]	> 2000	> 10000		
> 300	196		N#Cc1ccc(NC(=O)NCc2ccc3c(c2)C(=O)N(C2CCC(=O)NC2=O)C3)cc1 (centres unmarked) [Compound 74]	> 2000	> 10000		
> 300	449		O=C1CCC(N2Cc3ccc(CNC(=O)Nc4ccccc4-c4ccccc4)cc3C2=O)C(=O)N1 (centres unmarked) [Compound 66]	> 2000	> 10000		
100 to 300	373		COc1ccc(NC(=O)NCc2ccc3c(c2)C(=O)N(C2CCC(=O)NC2=O)C3)cc1Cl (centres unmarked) [Compound 59]	400 to 2000	> 10000	589	
≤ 100	434		CC(C)(C)c1ccc(NC(=O)NCc2ccc3c(c2)C(=O)N(C2CCC(=O)NC2=O)C3)cc1 (centres unmarked) [Compound 56]	≤ 400	> 10000	228	
